Results taken from US8710065B2, “Tricyclic inhibitors of kinases” (AbbVie Inc., priority 2011, dated 2014).

target: T1, GST-tagged-Wee1 kinase (Homo sapiens, UniProt P30291); experiment: Wee1 time-resolved fluorescence equilibrium binding assay (displacement of Oregon Green-labeled ATP-competitive kinase probe); conditions: read-out: Wee-1 inhibition (Ki)
T1 construct: purchased Carnabio (Carna Biosciences) 05-177
Summary of the method: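 Time-resolved fluorescence equilibrium binding with GST-Wee1, measuring displacement of a rapidly reversible Oregon Green-labelled ATP-competitive probe by competitive inhibitors; values reported as Ki.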

T1 sequence (P30291 whole entry): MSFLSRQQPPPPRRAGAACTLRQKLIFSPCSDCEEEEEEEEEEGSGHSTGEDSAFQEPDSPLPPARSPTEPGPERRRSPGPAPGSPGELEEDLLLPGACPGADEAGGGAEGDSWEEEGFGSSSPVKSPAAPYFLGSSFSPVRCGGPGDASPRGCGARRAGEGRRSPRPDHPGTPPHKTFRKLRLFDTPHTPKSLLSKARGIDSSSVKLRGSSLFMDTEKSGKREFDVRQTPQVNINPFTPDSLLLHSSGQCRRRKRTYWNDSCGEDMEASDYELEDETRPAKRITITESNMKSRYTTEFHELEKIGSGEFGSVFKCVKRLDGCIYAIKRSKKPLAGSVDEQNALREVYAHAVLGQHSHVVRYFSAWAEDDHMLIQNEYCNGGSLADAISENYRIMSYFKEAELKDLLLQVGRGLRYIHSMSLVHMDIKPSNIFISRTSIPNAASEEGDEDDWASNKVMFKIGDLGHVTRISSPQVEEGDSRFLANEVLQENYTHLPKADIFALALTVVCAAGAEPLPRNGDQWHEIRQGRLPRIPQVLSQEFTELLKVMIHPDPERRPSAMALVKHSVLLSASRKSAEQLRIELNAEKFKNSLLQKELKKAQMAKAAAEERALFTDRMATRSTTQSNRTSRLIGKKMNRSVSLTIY

| SMILES | Ki [nM] |
| --- | --- |
| O=C1CNCCN1c1ccc(Nc2ncc3c(=O)n(-c4c(Cl)cccc4Cl)c4nccn4c3n2)cc1 [Example 174, 6-(2,6-dichlorophenyl)-2-{[4-(2-oxopiperazin-1-yl)phenyl]amino}imidazo[1,2-a]pyrimido[5,4-e]pyrimidin-5(6H)-one] | < 10 |
| O=c1c2cnc(Nc3ccc(N4C[C@H]5C[C@@H]4CN5)cc3)nc2n2ccnc2n1-c1c(Cl)cccc1Cl [Example 175, 2-({4-[(1R,4R)-2,5-diazabicyclo[2.2.1]hept-2-yl]phenyl}amino)-6-(2,6-dichlorophenyl)imidazo[1,2-a]pyrimido[5,4-e]pyrimidin-5(6H)-one] | < 10 |
| CC(C)c1cc(Nc2ncc3c(=O)n(-c4c(Cl)cccc4Cl)c4nccn4c3n2)ccc1N1CCN(C)CC1 [Example 176, 6-(2,6-dichlorophenyl)-2-{[4-(4-methylpiperazin-1-yl)-3-(propan-2-yl)phenyl]amino}imidazo[1,2-a]pyrimido[5,4-e]pyrimidin-5(6H)-one] | < 10 |
| CN1C(C)(C)c2ccc(Nc3ncc4c(=O)n(-c5c(Cl)cccc5Cl)c5nccn5c4n3)cc2C1(C)C [Example 177, 6-(2,6-dichlorophenyl)-2-[(1,1,2,3,3-pentamethyl-2,3-dihydro-1H-isoindol-5-yl)amino]imidazo[1,2-a]pyrimido[5,4-e]pyrimidin-5(6H)-one] | < 10 |
| CN1Cc2cc(Nc3ncc4c(=O)n(-c5c(Cl)cccc5Cl)c5nccn5c4n3)ccc2C1(C)C [Example 178, 6-(2,6-dichlorophenyl)-2-[(1,1,2-trimethyl-2,3-dihydro-1H-isoindol-5-yl)amino]imidazo[1,2-a]pyrimido[5,4-e]pyrimidin-5(6H)-one] | < 10 |
| O=C1Nc2ccc(Nc3ncc4c(=O)n(-c5c(Cl)cccc5Cl)c5nccn5c4n3)cc2C[C@@H]2CNC[C@@H]12 [Example 179, (3aS,10aS)-8-{[6-(2,6-dichlorophenyl)-5-oxo-5,6-dihydroimidazo[1,2-a]pyrimido[5,4-e]pyrimidin-2-yl]amino}-2,3,3a,5,10,10a-hexahydropyrrolo[3,4-c][1]benzazepin-4(1H)-one] | < 10 |
| O=C1CCC(c2ccc(Nc3ncc4c(=O)n(-c5c(Cl)cccc5Cl)c5nccn5c4n3)cc2)=NN1 [Example 180, 6-(2,6-dichlorophenyl)-2-{[4-(6-oxo-1,4,5,6-tetrahydropyridazin-3-yl)phenyl]amino}imidazo[1,2-a]pyrimido[5,4-e]pyrimidin-5(6H)-one] | < 10 |
| O=c1c2cnc(Nc3ccc4snnc4c3)nc2n2ccnc2n1-c1c(Cl)cccc1Cl [Example 181, 2-(1,2,3-benzothiadiazol-5-ylamino)-6-(2,6-dichlorophenyl)imidazo[1,2-a]pyrimido[5,4-e]pyrimidin-5(6H)-one] | 10 to 100 |
| O=c1c2cnc(Nc3ccc4ncsc4c3)nc2n2ccnc2n1-c1c(Cl)cccc1Cl [Example 182, 2-(1,3-benzothiazol-6-ylamino)-6-(2,6-dichlorophenyl)imidazo[1,2-a]pyrimido[5,4-e]pyrimidin-5(6H)-one] | < 10 |
| COCCN(CCOC)c1ccc(Nc2ncc3c(=O)n(-c4ccccc4Cl)c4nccn4c3n2)cc1 [Example 183, 2-({4-[bis(2-methoxyethyl)amino]phenyl}amino)-6-(2-chlorophenyl)imidazo[1,2-a]pyrimido[5,4-e]pyrimidin-5(6H)-one] | 10 to 100 |
| O=c1c2cnc(Nc3ccc4c(c3)CCN(C3CC3)CC4)nc2n2ccnc2n1-c1ccccc1Cl [Example 184, 6-(2-chlorophenyl)-2-[(3-cyclopropyl-2,3,4,5-tetrahydro-1H-3-benzazepin-7-yl)amino]imidazo[1,2-a]pyrimido[5,4-e]pyrimidin-5(6H)-one] | < 10 |
| O=c1c2cnc(Nc3ccc4c(c3)CCN(CC(F)F)CC4)nc2n2ccnc2n1-c1ccccc1Cl [Example 185, 6-(2-chlorophenyl)-2-{[3-(2,2-difluoroethyl)-2,3,4,5-tetrahydro-1H-3-benzazepin-7-yl]amino}imidazo[1,2-a]pyrimido[5,4-e]pyrimidin-5(6H)-one] | < 10 |
| CN1CCN(c2ccc(Nc3ncc4c(=O)n(-c5c(F)cc(F)cc5Cl)c5nccn5c4n3)cc2)CC1 [Example 186, 6-(2-chloro-4,6-difluorophenyl)-2-{[4-(4-methylpiperazin-1-yl)phenyl]amino}imidazo[1,2-a]pyrimido[5,4-e]pyrimidin-5(6H)-one] | < 10 |
| CN1Cc2cc(Nc3ncc4c(=O)n(-c5c(F)cc(F)cc5Cl)c5nccn5c4n3)ccc2C(C)(C)C1 [Example 187, 6-(2-chloro-4,6-difluorophenyl)-2-[(2,4,4-trimethyl-1,2,3,4-tetrahydroisoquinolin-7-yl)amino]imidazo[1,2-a]pyrimido[5,4-e]pyrimidin-5(6H)-one] | < 10 |
| CN(C)C1Cc2ccc(Nc3ncc4c(=O)n(-c5c(F)cc(F)cc5Cl)c5nccn5c4n3)cc2C1 (stereo not shown) [Example 188, 6-(2-chloro-4,6-difluorophenyl)-2-{[2-(dimethylamino)-2,3-dihydro-1H-inden-5-yl]amino}imidazo[1,2-a]pyrimido[5,4-e]pyrimidin-5(6H)-one] | < 10 |
| O=c1c2cnc(Nc3ccc(NCCCN4CCOCC4)cc3)nc2n2ccnc2n1-c1ccccc1Cl [Example 189, 6-(2-chlorophenyl)-2-[(4-{[3-(morpholin-4-yl)propyl]amino}phenyl)amino]imidazo[1,2-a]pyrimido[5,4-e]pyrimidin-5(6H)-one] | 10 to 100 |
| O=c1c2cnc(Nc3ccc(N4CCC(N5CCCC5)CC4)cc3)nc2n2ccnc2n1-c1ccccc1Cl [Example 190, 6-(2-chlorophenyl)-2-({4-[4-(pyrrolidin-1-yl)piperidin-1-yl]phenyl}amino)imidazo[1,2-a]pyrimido[5,4-e]pyrimidin-5(6H)-one] | < 10 |
| CN(C)C1CCN(c2ccc(Nc3ncc4c(=O)n(-c5ccccc5Cl)c5nccn5c4n3)cc2)CC1 [Example 191, 6-(2-chlorophenyl)-2-({4-[4-(dimethylamino)piperidin-1-yl]phenyl}amino)imidazo[1,2-a]pyrimido[5,4-e]pyrimidin-5(6H)-one] | < 10 |
| CN1CCCC1CCNc1ccc(Nc2ncc3c(=O)n(-c4ccccc4Cl)c4nccn4c3n2)cc1 (stereo not shown) [Example 192, 6-(2-chlorophenyl)-2-[(4-{[2-(1-methylpyrrolidin-2-yl)ethyl]amino}phenyl)amino]imidazo[1,2-a]pyrimido[5,4-e]pyrimidin-5(6H)-one] | 10 to 100 |
| CN(C)C1CCC(OC(=O)c2ccc(Nc3ncc4c(=O)n(-c5c(Cl)cccc5Cl)c5nccn5c4n3)cc2)CC1 (stereo not shown) [Example 193, 4-(dimethylamino)cyclohexyl 4-{[6-(2,6-dichlorophenyl)-5-oxo-5,6-dihydroimidazo[1,2-a]pyrimido[5,4-e]pyrimidin-2-yl]amino}benzoate] | < 10 |
| O=c1c2cnc(Nc3ccc4[nH]ncc4c3)nc2n2ccnc2n1-c1c(Cl)cccc1Cl [Example 194, 6-(2,6-dichlorophenyl)-2-(1H-indazol-5-ylamino)imidazo[1,2-a]pyrimido[5,4-e]pyrimidin-5(6H)-one] | < 10 |

The next lines start with the values.

| Ki [nM] | SMILES |
| --- | --- |
| < 10 | CC(C)[C@H]1CN(c2ccc(Nc3ncc4c(=O)n(-c5c(Cl)cccc5Cl)c5nccn5c4n3)cc2)CCN1 [Example 195, 6-(2,6-dichlorophenyl)-2-({4-[(3S)-3-(propan-2-yl)piperazin-1-yl]phenyl}amino)imidazo[1,2-a]pyrimido[5,4-e]pyrimidin-5(6H)-one] |
| < 10 | CC(C)CC(N(C)C)C1(c2ccc(Nc3ncc4c(=O)n(-c5c(Cl)cccc5Cl)c5nccn5c4n3)cc2)CCC1 (stereo not shown) [Example 196] |
| < 10 | CNc1nc(C)c(-c2ccc(Nc3ncc4c(=O)n(-c5c(Cl)cccc5Cl)c5nccn5c4n3)cc2)s1 [Example 197, 6-(2,6-dichlorophenyl)-2-({4-[4-methyl-2-(methylamino)-1,3-thiazol-5-yl]phenyl}amino)imidazo[1,2-a]pyrimido[5,4-e]pyrimidin-5(6H)-one] |
| < 10 | O=c1c2cnc(Nc3ccc(N4CCNCC4)nc3)nc2n2ccnc2n1-c1c(Cl)cccc1Cl [Example 198, 6-(2,6-dichlorophenyl)-2-{[6-(piperazin-1-yl)pyridin-3-yl]amino}imidazo[1,2-a]pyrimido[5,4-e]pyrimidin-5(6H)-one] |
| < 10 | O=c1c2cnc(Nc3ccc4cn[nH]c4c3)nc2n2ccnc2n1-c1c(Cl)cccc1Cl [Example 199, 6-(2,6-dichlorophenyl)-2-(1H-indazol-6-ylamino)imidazo[1,2-a]pyrimido[5,4-e]pyrimidin-5(6H)-one] |
| < 10 | O=C(O[C@@H]1CCCN2CCCCC12)c1ccc(Nc2ncc3c(=O)n(-c4c(Cl)cccc4Cl)c4nccn4c3n2)cc1 (stereo partly drawn) [Example 200, (1R)-octahydro-2H-quinolizin-1-yl 4-{[6-(2,6-dichlorophenyl)-5-oxo-5,6-dihydroimidazo[1,2-a]pyrimido[5,4-e]pyrimidin-2-yl]amino}benzoate] |
| < 10 | CN(CCOC(=O)c1ccc(Nc2ncc3c(=O)n(-c4c(Cl)cccc4Cl)c4nccn4c3n2)cc1)C1CC1 [Example 201, 2-[cyclopropyl(methyl)amino]ethyl 4-{[6-(2,6-dichlorophenyl)-5-oxo-5,6-dihydroimidazo[1,2-a]pyrimido[5,4-e]pyrimidin-2-yl]amino}benzoate] |
| < 10 | CCN1C[C@H]2C[C@@H](C1)CN(C(=O)c1ccc(Nc3ncc4c(=O)n(-c5c(Cl)cccc5Cl)c5nccn5c4n3)cc1)C2 [Example 202, 6-(2,6-dichlorophenyl)-2-[(4-{[(1R,5S)-7-ethyl-3,7-diazabicyclo[3.3.1]non-3-yl]carbonyl}phenyl)amino]imidazo[1,2-a]pyrimido[5,4-e]pyrimidin-5(6H)-one] |
| < 10 | O=c1c2cnc(Nc3cc(F)c(N4CCNCC4)c(F)c3)nc2n2ccnc2n1-c1ccccc1Cl [Example 203, 6-(2-chlorophenyl)-2-{[3,5-difluoro-4-(piperazin-1-yl)phenyl]amino}imidazo[1,2-a]pyrimido[5,4-e]pyrimidin-5(6H)-one] |
| < 10 | O=c1c2cnc(Nc3ccc(N4CCN5CCC[C@@H]5C4)cc3)nc2n2ccnc2n1-c1ccccc1Cl [Example 204, 6-(2-chlorophenyl)-2-({4-[(8aR)-hexahydropyrrolo[1,2-a]pyrazin-2(1H)-yl]phenyl}amino)imidazo[1,2-a]pyrimido[5,4-e]pyrimidin-5(6H)-one] |
